From the supplement of paper PMC10307832

Key:
Assay in all cases: relative viability (nuclei count vs DMSO), 5 days (fraction); higher = more cells survive
Entinostat + Alpelisib = compound: Nc1ccccc1NC(=O)c1ccc(CNC(=O)OCc2cccnc2)cc1 [Entinostat] + Cc1nc(NC(=O)N2CCC[C@H]2C(N)=O)sc1-c1ccnc(C(C)(C)C(F)(F)F)c1 [Alpelisib] (partner 2 µM)
In short: (§1)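 Lung cancer cell lines were pin-tool dosed in 1536-well plates on the day after seeding, with either a lone drug or a fixed anchor-drug dose plus five library-drug doses (not always all listed) in √10 steps. Nuclei were counted on 4× images after 5 days. Relative viability is the ratio of treated-well to vehicle-well nuclei counts, with each value a median of duplicate plates.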

Entinostat + Crizotinib = compound: Nc1ccccc1NC(=O)c1ccc(CNC(=O)OCc2cccnc2)cc1 [Entinostat] + C[C@@H](Oc1cc(-c2cnn(C3CCNCC3)c2)cnc1N)c1c(Cl)ccc(F)c1Cl [Crizotinib] (partner 1 µM)
In short: as §1

Entinostat + Foretinib = compound: Nc1ccccc1NC(=O)c1ccc(CNC(=O)OCc2cccnc2)cc1 [Entinostat] + COc1cc2c(Oc3ccc(NC(=O)C4(C(=O)Nc5ccc(F)cc5)CC4)cc3F)ccnc2cc1OCCCN1CCOCC1 [Foretinib] (partner 0.25 µM)
In short: as §1

Entinostat + OSI-027 = compound: Nc1ccccc1NC(=O)c1ccc(CNC(=O)OCc2cccnc2)cc1 [Entinostat] + COc1cccc2cc(-c3nc([C@H]4CC[C@H](C(=O)O)CC4)n4ncnc(N)c34)[nH]c12 [OSI-027] (partner 0.5 µM)
In short: as §1

Cell Line: NCI-H2405
- relative viability (Entinostat + Alpelisib; first compound 0.02 µM): 0.789
- relative viability (Entinostat + Alpelisib; first compound 0.06325 µM): 1.01
- relative viability (Entinostat + Alpelisib; first compound 0.2 µM): 0.931
- relative viability (Entinostat + Alpelisib; first compound 0.6325 µM): 0.795
- relative viability (Entinostat + Alpelisib; first compound 2 µM): 0.528
- relative viability (Entinostat + Crizotinib; first compound 0.02 µM): 0.85
- relative viability (Entinostat + Crizotinib; first compound 0.06325 µM): 0.887
- relative viability (Entinostat + Crizotinib; first compound 0.2 µM): 0.906
- relative viability (Entinostat + Crizotinib; first compound 0.6325 µM): 0.805
- relative viability (Entinostat + Crizotinib; first compound 2 µM): 0.598
- relative viability (Entinostat + Foretinib; first compound 0.02 µM): 1.06
- relative viability (Entinostat + Foretinib; first compound 0.06325 µM): 1.11
- relative viability (Entinostat + Foretinib; first compound 0.2 µM): 0.979
- relative viability (Entinostat + Foretinib; first compound 0.6325 µM): 0.902
- relative viability (Entinostat + Foretinib; first compound 2 µM): 0.614
- relative viability (Entinostat + OSI-027; first compound 0.02 µM): 0.574
- relative viability (Entinostat + OSI-027; first compound 0.06325 µM): 0.652
- relative viability (Entinostat + OSI-027; first compound 0.2 µM): 0.582
- relative viability (Entinostat + OSI-027; first compound 0.6325 µM): 0.567
- relative viability (Entinostat + OSI-027; first compound 2 µM): 0.414

Cell Line: NCI-H3122
- relative viability (Entinostat + Alpelisib; first compound 0.02 µM): 0.777
- relative viability (Entinostat + Alpelisib; first compound 0.06325 µM): 0.881
- relative viability (Entinostat + Alpelisib; first compound 0.2 µM): 0.786
- relative viability (Entinostat + Alpelisib; first compound 0.6325 µM): 0.733
- relative viability (Entinostat + Alpelisib; first compound 2 µM): 0.605
- relative viability (Entinostat + Crizotinib; first compound 0.02 µM): 0.28
- relative viability (Entinostat + Crizotinib; first compound 0.06325 µM): 0.265
- relative viability (Entinostat + Crizotinib; first compound 0.2 µM): 0.319
- relative viability (Entinostat + Crizotinib; first compound 0.6325 µM): 0.313
- relative viability (Entinostat + Crizotinib; first compound 2 µM): 0.334
- relative viability (Entinostat + Foretinib; first compound 0.02 µM): 0.992
- relative viability (Entinostat + Foretinib; first compound 0.06325 µM): 0.995
- relative viability (Entinostat + Foretinib; first compound 0.2 µM): 0.999
- relative viability (Entinostat + Foretinib; first compound 0.6325 µM): 0.973
- relative viability (Entinostat + Foretinib; first compound 2 µM): 0.776
- relative viability (Entinostat + OSI-027; first compound 0.02 µM): 1.01
- relative viability (Entinostat + OSI-027; first compound 0.06325 µM): 1.08
- relative viability (Entinostat + OSI-027; first compound 0.2 µM): 0.998
- relative viability (Entinostat + OSI-027; first compound 0.6325 µM): 0.823
- relative viability (Entinostat + OSI-027; first compound 2 µM): 0.191

Cell Line: PC-3 [JPC-3]
- relative viability (Entinostat + Alpelisib; first compound 0.02 µM): 0.98
- relative viability (Entinostat + Alpelisib; first compound 0.06325 µM): 0.929
- relative viability (Entinostat + Alpelisib; first compound 0.2 µM): 0.829
- relative viability (Entinostat + Alpelisib; first compound 0.6325 µM): 0.667
- relative viability (Entinostat + Alpelisib; first compound 2 µM): 0.463
- relative viability (Entinostat + Crizotinib; first compound 0.02 µM): 0.965
- relative viability (Entinostat + Crizotinib; first compound 0.06325 µM): 1.01
- relative viability (Entinostat + Crizotinib; first compound 0.2 µM): 0.79
- relative viability (Entinostat + Crizotinib; first compound 0.6325 µM): 0.658
- relative viability (Entinostat + Crizotinib; first compound 2 µM): 0.44
- relative viability (Entinostat + Foretinib; first compound 0.02 µM): 0.988
- relative viability (Entinostat + Foretinib; first compound 0.06325 µM): 0.977
- relative viability (Entinostat + Foretinib; first compound 0.2 µM): 0.871
- relative viability (Entinostat + Foretinib; first compound 0.6325 µM): 0.732
- relative viability (Entinostat + Foretinib; first compound 2 µM): 0.41
- relative viability (Entinostat + OSI-027; first compound 0.02 µM): 0.761
- relative viability (Entinostat + OSI-027; first compound 0.06325 µM): 0.745
- relative viability (Entinostat + OSI-027; first compound 0.2 µM): 0.57
- relative viability (Entinostat + OSI-027; first compound 0.6325 µM): 0.432
- relative viability (Entinostat + OSI-027; first compound 2 µM): 0.306

Cell Line: PC-14
- relative viability (Entinostat + Alpelisib; first compound 0.02 µM): 1.03
- relative viability (Entinostat + Alpelisib; first compound 0.06325 µM): 0.99
- relative viability (Entinostat + Alpelisib; first compound 0.2 µM): 0.935
- relative viability (Entinostat + Alpelisib; first compound 0.6325 µM): 0.487
- relative viability (Entinostat + Alpelisib; first compound 2 µM): 0.219
- relative viability (Entinostat + Crizotinib; first compound 0.02 µM): 0.849
- relative viability (Entinostat + Crizotinib; first compound 0.06325 µM): 0.928
- relative viability (Entinostat + Crizotinib; first compound 0.2 µM): 0.916
- relative viability (Entinostat + Crizotinib; first compound 0.6325 µM): 0.37
- relative viability (Entinostat + Crizotinib; first compound 2 µM): 0.159
- relative viability (Entinostat + Foretinib; first compound 0.02 µM): 0.991
- relative viability (Entinostat + Foretinib; first compound 0.06325 µM): 0.951
- relative viability (Entinostat + Foretinib; first compound 0.2 µM): 0.969
- relative viability (Entinostat + Foretinib; first compound 0.6325 µM): 0.441
- relative viability (Entinostat + Foretinib; first compound 2 µM): 0.232
- relative viability (Entinostat + OSI-027; first compound 0.02 µM): 0.814
- relative viability (Entinostat + OSI-027; first compound 0.06325 µM): 0.829
- relative viability (Entinostat + OSI-027; first compound 0.2 µM): 0.779
- relative viability (Entinostat + OSI-027; first compound 0.6325 µM): 0.235
- relative viability (Entinostat + OSI-027; first compound 2 µM): 0.0869

Cell Line: RERF-LC-KJ
- relative viability (Entinostat + Alpelisib; first compound 0.02 µM): 0.846
- relative viability (Entinostat + Alpelisib; first compound 0.06325 µM): 0.704
- relative viability (Entinostat + Alpelisib; first compound 0.2 µM): 0.866
- relative viability (Entinostat + Alpelisib; first compound 0.6325 µM): 0.647
- relative viability (Entinostat + Alpelisib; first compound 2 µM): 0.427
- relative viability (Entinostat + Crizotinib; first compound 0.02 µM): 0.844
- relative viability (Entinostat + Crizotinib; first compound 0.06325 µM): 0.75
- relative viability (Entinostat + Crizotinib; first compound 0.2 µM): 0.754
- relative viability (Entinostat + Crizotinib; first compound 0.6325 µM): 0.431
- relative viability (Entinostat + Crizotinib; first compound 2 µM): 0.233
- relative viability (Entinostat + Foretinib; first compound 0.02 µM): 0.853
- relative viability (Entinostat + Foretinib; first compound 0.06325 µM): 0.856
- relative viability (Entinostat + Foretinib; first compound 0.2 µM): 0.84
- relative viability (Entinostat + Foretinib; first compound 0.6325 µM): 0.516
- relative viability (Entinostat + Foretinib; first compound 2 µM): 0.285
- relative viability (Entinostat + OSI-027; first compound 0.02 µM): 0.582
- relative viability (Entinostat + OSI-027; first compound 0.06325 µM): 0.591
- relative viability (Entinostat + OSI-027; first compound 0.2 µM): 0.6
- relative viability (Entinostat + OSI-027; first compound 0.6325 µM): 0.326
- relative viability (Entinostat + OSI-027; first compound 2 µM): 0.264

Cell Line: SK-LU-1
- relative viability (Entinostat + Alpelisib; first compound 0.02 µM): 0.954
- relative viability (Entinostat + Alpelisib; first compound 0.06325 µM): 0.962
- relative viability (Entinostat + Alpelisib; first compound 0.2 µM): 0.943
- relative viability (Entinostat + Alpelisib; first compound 0.6325 µM): 0.555
- relative viability (Entinostat + Alpelisib; first compound 2 µM): 0.458
- relative viability (Entinostat + Crizotinib; first compound 0.02 µM): 0.935
- relative viability (Entinostat + Crizotinib; first compound 0.06325 µM): 0.756
- relative viability (Entinostat + Crizotinib; first compound 0.2 µM): 0.733
- relative viability (Entinostat + Crizotinib; first compound 0.6325 µM): 0.572
- relative viability (Entinostat + Crizotinib; first compound 2 µM): 0.511
- relative viability (Entinostat + Foretinib; first compound 0.02 µM): 0.865
- relative viability (Entinostat + Foretinib; first compound 0.06325 µM): 0.847
- relative viability (Entinostat + Foretinib; first compound 0.2 µM): 0.836
- relative viability (Entinostat + Foretinib; first compound 0.6325 µM): 0.589
- relative viability (Entinostat + Foretinib; first compound 2 µM): 0.447
- relative viability (Entinostat + OSI-027; first compound 0.02 µM): 0.357
- relative viability (Entinostat + OSI-027; first compound 0.06325 µM): 0.448
- relative viability (Entinostat + OSI-027; first compound 0.2 µM): 0.35
- relative viability (Entinostat + OSI-027; first compound 0.6325 µM): 0.261
- relative viability (Entinostat + OSI-027; first compound 2 µM): 0.231

Cell Line: SK-MES-1
- relative viability (Entinostat + Alpelisib; first compound 0.02 µM): 0.932
- relative viability (Entinostat + Alpelisib; first compound 0.06325 µM): 1.02
- relative viability (Entinostat + Alpelisib; first compound 0.2 µM): 1.05
- relative viability (Entinostat + Alpelisib; first compound 0.6325 µM): 0.81
- relative viability (Entinostat + Alpelisib; first compound 2 µM): 0.682
- relative viability (Entinostat + Crizotinib; first compound 0.02 µM): 0.984
- relative viability (Entinostat + Crizotinib; first compound 0.06325 µM): 1.03
- relative viability (Entinostat + Crizotinib; first compound 0.2 µM): 1.09
- relative viability (Entinostat + Crizotinib; first compound 0.6325 µM): 0.955
- relative viability (Entinostat + Crizotinib; first compound 2 µM): 0.67
- relative viability (Entinostat + Foretinib; first compound 0.02 µM): 1.08
- relative viability (Entinostat + Foretinib; first compound 0.06325 µM): 1.09
- relative viability (Entinostat + Foretinib; first compound 0.2 µM): 1.15
- relative viability (Entinostat + Foretinib; first compound 0.6325 µM): 0.96
- relative viability (Entinostat + Foretinib; first compound 2 µM): 0.712
- relative viability (Entinostat + OSI-027; first compound 0.02 µM): 0.584
- relative viability (Entinostat + OSI-027; first compound 0.06325 µM): 0.66
- relative viability (Entinostat + OSI-027; first compound 0.2 µM): 0.792
- relative viability (Entinostat + OSI-027; first compound 0.6325 µM): 0.595
- relative viability (Entinostat + OSI-027; first compound 2 µM): 0.532

Cell Line: SW 1573
- relative viability (Entinostat + Alpelisib; first compound 0.02 µM): 0.672
- relative viability (Entinostat + Alpelisib; first compound 0.06325 µM): 0.665
- relative viability (Entinostat + Alpelisib; first compound 0.2 µM): 1.04
- relative viability (Entinostat + Alpelisib; first compound 0.6325 µM): 0.819
- relative viability (Entinostat + Alpelisib; first compound 2 µM): 0.83
- relative viability (Entinostat + Crizotinib; first compound 0.02 µM): 0.848
- relative viability (Entinostat + Crizotinib; first compound 0.06325 µM): 0.865
- relative viability (Entinostat + Crizotinib; first compound 0.2 µM): 0.937
- relative viability (Entinostat + Crizotinib; first compound 0.6325 µM): 0.761
- relative viability (Entinostat + Crizotinib; first compound 2 µM): 0.592
- relative viability (Entinostat + Foretinib; first compound 0.02 µM): 0.966
- relative viability (Entinostat + Foretinib; first compound 0.06325 µM): 0.927
- relative viability (Entinostat + Foretinib; first compound 0.2 µM): 0.877
- relative viability (Entinostat + Foretinib; first compound 0.6325 µM): 0.917
- relative viability (Entinostat + Foretinib; first compound 2 µM): 0.7
- relative viability (Entinostat + OSI-027; first compound 0.02 µM): 0.639
- relative viability (Entinostat + OSI-027; first compound 0.06325 µM): 0.832
- relative viability (Entinostat + OSI-027; first compound 0.2 µM): 0.617
- relative viability (Entinostat + OSI-027; first compound 0.6325 µM): 0.598
- relative viability (Entinostat + OSI-027; first compound 2 µM): 0.54
